Source: ChEMBL document CHEMBL3885861, “Open TG-GATES”

Species: Rattus norvegicus
Experiment: Open TG-GATES - Regimen: Daily Repeat
Assay type: toxicity, organism-based, Sprague-Dawley
Design: regimen Daily Repeat, gender Male, age 6 weeks
Conditions: in vivo, po, 0 mg/kg, route gavage, dose level Control; for APTT / Bas / Eos / Fbg / Hb / Ht / Lym / MCH / MCHC / MCV / Mono / Neu / PT / Plat / RBC / Ret / WBC: tissue Blood; for KIDNEY_L / KIDNEY_R / KIDNEY_TOTAL: tissue Kidney; for LIVER: tissue Liver; for A/G / ALP / ALT / AST / BUN / CRE / Ca / Cl / DBIL / GLC / IP / K / LDH / Na / PL / RALB / TBIL / TC / TG / TP / gamma-GTP: tissue Plasma

CC(S)C(=O)NCC(=O)O (configuration not stated) [TIOPRONIN] was tested, and the TERMINAL_BW (72 h, time 3 day) was 222.4 g, the APTT (72 h, time 3 day) was 22.6 s and the Bas (72 h, time 3 day) was 0%. The Eos (72 h, time 3 day) was 1%, the Fbg (72 h, time 3 day) was 300.2 mg/dL and the Hb (72 h, time 3 day) was 13.5 g/dL. It also gave a Ht (72 h, time 3 day) of 40.8%, a Lym (72 h, time 3 day) of 81.6% and an MCH (72 h, time 3 day) of 20.9 pg. For the same molecule, the MCHC (72 h, time 3 day) was 33.1%, the MCV (72 h, time 3 day) was 63 fL and the Mono (72 h, time 3 day) was 2.6%. For the same molecule, the Neu (72 h, time 3 day) was 14.2%, the PT (72 h, time 3 day) was 15.7 s and the Plat (72 h, time 3 day) was 112.4 x10_4/uL. For the same molecule, the RBC (72 h, time 3 day) was 647.2 x10_4/ul, the Ret (72 h, time 3 day) was 6.8% and the WBC (72 h, time 3 day) was 142.5 x10_2/uL. For the same molecule, the KIDNEY_L (72 h, time 3 day) was 1 g, the KIDNEY_R (72 h, time 3 day) was 1 g and the KIDNEY_TOTAL (72 h, time 3 day) was 2 g. The LIVER (72 h, time 3 day) was 10.5 g, the A/G (72 h, time 3 day) was 1.1 and the ALP (72 h, time 3 day) was 1395.4 IU/L. The ALT (72 h, time 3 day) was 46.2 IU/L, the AST (72 h, time 3 day) was 73.8 IU/L and the BUN (72 h, time 3 day) was 17.4 mg/dL. It also gave a CRE (72 h, time 3 day) of 0.2 mg/dL, a Ca (72 h, time 3 day) of 10.5 mg/dL and a Cl (72 h, time 3 day) of 106 meq/L. For the same molecule, the DBIL (72 h, time 3 day) was 0 mg/dL, the GLC (72 h, time 3 day) was 202 mg/dL and the IP (72 h, time 3 day) was 7.2 mg/dL. The K (72 h, time 3 day) was 4.3 meq/L, the LDH (72 h, time 3 day) was 188 IU/L and the Na (72 h, time 3 day) was 140.8 meq/L. It also gave a PL (72 h, time 3 day) of 137.6 mg/dL, an RALB (72 h, time 3 day) of 2.9 g/dL and a TBIL (72 h, time 3 day) of 0.004 mg/dL. The TC (72 h, time 3 day) was 75 mg/dL, the TG (72 h, time 3 day) was 86.6 mg/dL and the TP (72 h, time 3 day) was 5.5 g/dL. For the same molecule, the gamma-GTP (72 h, time 3 day) was 1.6 IU/L, the TERMINAL_BW ([…], time 7 day) was 250.2 g and the TERMINAL_BW ([…], time 14 day) was 315.5 g. The TERMINAL_BW ([…], time 28 day) was 385.3 g, the APTT ([…], time 7 day) was 21.4 s and the Bas ([…], time 7 day) was 0%. For the same molecule, the Eos ([…], time 7 day) was 0.8%, the Fbg ([…], time 7 day) was 311.2 mg/dL and the Hb ([…], time 7 day) was 13.8 g/dL. It also gave a Ht ([…], time 7 day) of 40.6%, a Lym ([…], time 7 day) of 83% and an MCH ([…], time 7 day) of 20.7 pg. For the same molecule, the MCHC ([…], time 7 day) was 33.9%, the MCV ([…], time 7 day) was 61 fL and the Mono ([…], time 7 day) was 2%. It also gave a Neu ([…], time 7 day) of 13.4%, a PT ([…], time 7 day) of 15.4 s and a Plat ([…], time 7 day) of 118.9 x10_4/uL. For the same molecule, the RBC ([…], time 7 day) was 667 x10_4/ul, the Ret ([…], time 7 day) was 5.6% and the WBC ([…], time 7 day) was 124.9 x10_2/uL. The APTT ([…], time 14 day) was 22.9 s, the Bas ([…], time 14 day) was 0% and the Eos ([…], time 14 day) was 1%. The Fbg ([…], time 14 day) was 299.2 mg/dL, the Hb ([…], time 14 day) was 14.1 g/dL and the Ht ([…], time 14 day) was 40.4%. The Lym ([…], time 14 day) was 82.6%, the MCH ([…], time 14 day) was 20.5 pg and the MCHC ([…], time 14 day) was 34.8%. It also gave an MCV ([…], time 14 day) of 58.9 fL, a Mono ([…], time 14 day) of 2.2% and a Neu ([…], time 14 day) of 14%. For the same molecule, the PT ([…], time 14 day) was 15.6 s, the Plat ([…], time 14 day) was 118.7 x10_4/uL and the RBC ([…], time 14 day) was 686.8 x10_4/ul. For the same molecule, the Ret ([…], time 14 day) was 5.3%, the WBC ([…], time 14 day) was 128.8 x10_2/uL and the APTT ([…], time 28 day) was 24.5 s. It also gave a Bas ([…], time 28 day) of 0%, an Eos ([…], time 28 day) of 1% and a Fbg ([…], time 28 day) of 305.6 mg/dL. For the same molecule, the Hb ([…], time 28 day) was 15.3 g/dL, the Ht ([…], time 28 day) was 43.2% and the Lym ([…], time 28 day) was 81.8%. The MCH ([…], time 28 day) was 19.6 pg, the MCHC ([…], time 28 day) was 35.3% and the MCV ([…], time 28 day) was 55.5 fL. For the same molecule, the Mono ([…], time 28 day) was 1.8%, the Neu ([…], time 28 day) was 14.2% and the PT ([…], time 28 day) was 16 s. For the same molecule, the Plat ([…], time 28 day) was 91.2 x10_4/uL, the RBC ([…], time 28 day) was 778.2 x10_4/ul and the Ret ([…], time 28 day) was 2.8%. For the same molecule, the WBC ([…], time 28 day) was 114.1 x10_2/uL, the KIDNEY_L ([…], time 7 day) was 1.1 g and the KIDNEY_R ([…], time 7 day) was 1.1 g. The KIDNEY_TOTAL ([…], time 7 day) was 2.2 g, the KIDNEY_L ([…], time 14 day) was 1.2 g and the KIDNEY_R ([…], time 14 day) was 1.2 g. It also gave a KIDNEY_TOTAL ([…], time 14 day) of 2.4 g, a KIDNEY_L ([…], time 28 day) of 1.3 g and a KIDNEY_R ([…], time 28 day) of 1.4 g. For the same molecule, the KIDNEY_TOTAL ([…], time 28 day) was 2.7 g, the LIVER ([…], time 7 day) was 11.5 g and the LIVER ([…], time 14 day) was 13.7 g. The LIVER ([…], time 28 day) was 15.9 g, the A/G ([…], time 7 day) was 1.2 and the ALP ([…], time 7 day) was 1704.2 IU/L. It also gave an ALT ([…], time 7 day) of 37.4 IU/L, an AST ([…], time 7 day) of 68.6 IU/L and a BUN ([…], time 7 day) of 18.8 mg/dL. It also gave a CRE ([…], time 7 day) of 0.2 mg/dL, a Ca ([…], time 7 day) of 10.7 mg/dL and a Cl ([…], time 7 day) of 107.2 meq/L. It also gave a DBIL ([…], time 7 day) of 0 mg/dL, a GLC ([…], time 7 day) of 191.8 mg/dL and an IP ([…], time 7 day) of 7.1 mg/dL. For the same molecule, the K ([…], time 7 day) was 4.5 meq/L, the LDH ([…], time 7 day) was 146.4 IU/L and the Na ([…], time 7 day) was 141.6 meq/L. The PL ([…], time 7 day) was 158.6 mg/dL, the RALB ([…], time 7 day) was 3 g/dL and the TBIL ([…], time 7 day) was 0.004 mg/dL. For the same molecule, the TC ([…], time 7 day) was 83.2 mg/dL, the TG ([…], time 7 day) was 107.2 mg/dL and the TP ([…], time 7 day) was 5.4 g/dL. For the same molecule, the gamma-GTP ([…], time 7 day) was 1.8 IU/L, the A/G ([…], time 14 day) was 1.3 and the ALP ([…], time 14 day) was 1485.6 IU/L. It also gave an ALT ([…], time 14 day) of 37 IU/L, an AST ([…], time 14 day) of 63.4 IU/L and a BUN ([…], time 14 day) of 19 mg/dL. The CRE ([…], time 14 day) was 0.2 mg/dL, the Ca ([…], time 14 day) was 10.3 mg/dL and the Cl ([…], time 14 day) was 105 meq/L. For the same molecule, the DBIL ([…], time 14 day) was 0 mg/dL, the GLC ([…], time 14 day) was 205.8 mg/dL and the IP ([…], time 14 day) was 6.9 mg/dL. The K ([…], time 14 day) was 4.5 meq/L, the LDH ([…], time 14 day) was 157.8 IU/L and the Na ([…], time 14 day) was 139.2 meq/L. For the same molecule, the PL ([…], time 14 day) was 135.6 mg/dL, the RALB ([…], time 14 day) was 3.1 g/dL and the TBIL ([…], time 14 day) was 0.006 mg/dL. It also gave a TC ([…], time 14 day) of 63.6 mg/dL, a TG ([…], time 14 day) of 135.6 mg/dL and a TP ([…], time 14 day) of 5.6 g/dL. The gamma-GTP ([…], time 14 day) was 2.6 IU/L, the A/G ([…], time 28 day) was 1.2 and the ALP ([…], time 28 day) was 1102.4 IU/L. It also gave an ALT ([…], time 28 day) of 35 IU/L, an AST ([…], time 28 day) of 61.4 IU/L and a BUN ([…], time 28 day) of 19.2 mg/dL. The CRE ([…], time 28 day) was 0.2 mg/dL, the Ca ([…], time 28 day) was 10.8 mg/dL and the Cl ([…], time 28 day) was 106.8 meq/L. The DBIL ([…], time 28 day) was 0 mg/dL, the GLC ([…], time 28 day) was 202.6 mg/dL and the IP ([…], time 28 day) was 6.7 mg/dL. It also gave a K ([…], time 28 day) of 4.1 meq/L, an LDH ([…], time 28 day) of 152.6 IU/L and a Na ([…], time 28 day) of 143.2 meq/L. For the same molecule, the PL ([…], time 28 day) was 151.4 mg/dL, the RALB ([…], time 28 day) was 3.3 g/dL and the TBIL ([…], time 28 day) was 0.01 mg/dL. It also gave a TC ([…], time 28 day) of 78.2 mg/dL, a TG ([…], time 28 day) of 135.4 mg/dL and a TP ([…], time 28 day) of 5.9 g/dL. For the same molecule, the gamma-GTP ([…], time 28 day) was 2 IU/L.
